In US9957264B2 (Merck Sharp & Dohme Corp., priority 2013, dated 2018):
pIC50: −log10 of the molar value.

What was measured:
[1] = molecular target: JAK1 (recombinant purified GST-tagged catalytic domain) (Homo sapiens (Human), UniProt P23458); experiment: Jak Biochemical HTRF Assay (JAK1); conditions: [ATP] 31.8 μM
Protocol: (§1) Jak Biochemical HTRF Assay Protocol
The ability of compounds to inhibit the activity of JAK1, JAK2, JAK3, and Tyk2 was measured using a recombinant purified GST-tagged catalytic domain for each enzyme (Invitrogen JAK1 #M4290, JAK2 #M4290, JAK3 #M4290, Tyk2 #M4290) in an HTRF format biochemical assay. The reactions employed a common peptide substrate, LCB-[…]-NH2 (in-house). The basic assay protocol is as follows: First, 250 nL of diluted compounds in DMSO were dispensed into the wells of a dry 384-well Black plate (Greiner #781076) using a Labcyte Echo 555 acoustic dispenser. Subsequent reagent additions employed an Agilent Bravo. […] After equilibration, 2 μL of 10×ATP in 1× assay buffer was added to initiate the kinase reaction and the plates were shaken and then incubated at room temperature for 120 minutes. At the end of the incubation, 20 μL of 2× stop buffer (streptavidin-Dylight 650 (Thermo #84547B/100 mL), Eu-tagged pY20 antibody (Perkin Elmer #AD0067), EDTA, HEPES, and Triton) was added to quench the reaction. Plates were shaken and centrifuged and then incubated 60 minutes at room temperature and then read on a Perkin Elmer Envision (λex=337 nm, λem=665 and 615 nm, TRF delay time=20 μs). HTRF signal=10,000*665 nm reading/615 nm reading. After normalization to untreated controls, the percent inhibition of the HTRF signal at each compound concentration was calculated. The plot of percent inhibition versus the log of compound concentration was fit with a 4-parameter dose response equation to calculate IC50 values.
(§2) Final reaction conditions were:
Examples of the instant invention were evaluated in JAK1 and JAK2 in vitro binding assays as described above. The following table tabulates the JAK1 IC50 values and JAK2 IC50 values disclosed for the instant invention.

[2] = molecular target: JAK2 (recombinant purified GST-tagged catalytic domain) (Homo sapiens (Human), UniProt O60674); experiment: Jak Biochemical HTRF Assay (JAK2); conditions: [ATP] 8.5 μM
Sequence of JAK2 (recombinant purified GST-tagged catalytic domain) (O60674 849-1124): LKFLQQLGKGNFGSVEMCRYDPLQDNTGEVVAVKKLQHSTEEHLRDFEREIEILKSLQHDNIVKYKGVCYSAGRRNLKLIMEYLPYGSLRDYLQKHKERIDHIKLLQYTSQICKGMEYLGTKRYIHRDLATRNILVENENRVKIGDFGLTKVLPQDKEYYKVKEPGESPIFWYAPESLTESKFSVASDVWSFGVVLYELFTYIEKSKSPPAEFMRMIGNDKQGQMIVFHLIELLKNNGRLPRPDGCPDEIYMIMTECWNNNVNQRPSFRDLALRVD
Protocol: as §1
The ability of compounds to inhibit the activity of JAK1, JAK2, JAK3, and Tyk2 was measured using a recombinant purified GST-tagged catalytic domain for each enzyme (Invitrogen JAK1 #M4290, JAK2 #M4290, JAK3 #M4290, Tyk2 #M4290) in an HTRF format biochemical assay. […] The basic assay protocol is as follows: First, 250 nL of diluted compounds in DMSO were dispensed into the wells of a dry 384-well Black plate (Greiner #781076) using a Labcyte Echo 555 acoustic dispenser. Subsequent reagent additions employed an Agilent Bravo. […] After equilibration, 2 μL of 10×ATP in 1× assay buffer was added to initiate the kinase reaction and the plates were shaken and then incubated at room temperature for 120 minutes. […] Plates were shaken and centrifuged and then incubated 60 minutes at room temperature and then read on a Perkin Elmer Envision (λex=337 nm, λem=665 and 615 nm, TRF delay time=20 μs). HTRF signal=10,000*665 nm reading/615 nm reading. After normalization to untreated controls, the percent inhibition of the HTRF signal at each compound concentration was calculated. The plot of percent inhibition versus the log of compound concentration was fit with a 4-parameter dose response equation to calculate IC50 values.
as §2
Examples of the instant invention were evaluated in JAK1 and JAK2 in vitro binding assays as described above.

Sequence of JAK1 (recombinant purified GST-tagged catalytic domain) (P23458 875-1153): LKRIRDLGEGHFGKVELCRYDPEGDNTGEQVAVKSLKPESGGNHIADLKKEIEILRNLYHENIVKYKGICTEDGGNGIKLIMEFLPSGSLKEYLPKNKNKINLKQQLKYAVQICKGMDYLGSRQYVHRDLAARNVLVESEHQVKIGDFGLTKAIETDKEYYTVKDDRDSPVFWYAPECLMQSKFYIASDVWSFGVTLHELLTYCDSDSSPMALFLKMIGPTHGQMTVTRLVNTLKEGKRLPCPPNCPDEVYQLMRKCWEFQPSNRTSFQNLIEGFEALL

Row | SMILES | pIC50 [1] | pIC50 [2]
1 | C[C@@H]1CCCC1OC(=O)N1CCC(CC#N)(n2nc(Nc3ccc(S(=O)(=O)N(C)C)cc3)c3c(=O)[nH]ccc32)CC1 (mixture of isomers) [Example 11-2, (trans racemic)-2-methylcyclopentyl 4-(cyanomethyl)-4-(3-((4-(N,N-dimethylsulfamoyl)phenyl)amino)-4-oxo-4,5-dihydro-1H-pyrazolo[4,3-c]pyridin-1-yl)piperidine-1-carboxylate] | 9.42 | 8.77
2 | CC(C)(C)OC(=O)N1CCC(CC#N)(n2nc(Nc3ccc([C@H](O)C(F)(F)F)cc3)c3c(=O)[nH]ccc32)CC1 (single isomer, unassigned) [Example 5-2, tert-butyl 4-(cyanomethyl)-4-[4-oxo-3-({4-[(1S or 1R)-2,2,2-trifluoro-1-hydroxyethyl]phenyl}amino)-4,5-dihydro-1H-pyrazolo[4,3-c]pyridin-1-yl]piperidine-1-carboxylate] | 9.68 | 9.36
3 | CC(C)(C)OC(=O)N1CCC(CC#N)(n2nc(Nc3ccc([C@@H](O)C(F)(F)F)cc3)c3c(=O)[nH]ccc32)CC1 (single isomer, unassigned) [Example 5-3, tert-butyl 4-(cyanomethyl)-4-[4-oxo-3-({4-[(1R or 1S)-2,2,2-trifluoro-1-hydroxyethyl]phenyl}amino)-4,5-dihydro-1H-pyrazolo[4,3-c]pyridin-1-yl]piperidine-1-carboxylate] | 9.37 | 8.95
4 | CC(C)(C)OC(=O)N1CC[C@](CC#N)(n2nc(Nc3ccc(S(C)(=O)=O)cc3)c3c(=O)[nH]ccc32)[C@@H](F)C1 (single isomer, unassigned) [Example 5-14, tert-butyl (3S,4R or 3R,4S)-4-(cyanomethyl)-3-fluoro-4-(3-{[4-(methylsulfonyl)phenyl]amino}-4-oxo-4,5-dihydro-1H-pyrazolo[4,3-c]pyridin-1-yl)piperidine-1-carboxylate] | 8.97 | 7.75
5 | CC(C)(C)OC(=O)N1CC[C@@](CC#N)(n2nc(Nc3ccc(S(C)(=O)=O)cc3)c3c(=O)[nH]ccc32)[C@H](F)C1 (single isomer, unassigned) [Example 5-15, tert-butyl (3R,4S or 3S,4R)-4-(cyanomethyl)-3-fluoro-4-(3-{[4-(methylsulfonyl)phenyl]amino}-4-oxo-4,5-dihydro-1H-pyrazolo[4,3-c]pyridin-1-yl)piperidine-1-carboxylate] | 9.57 | 8.46
6 | CC(C)(C)OC(=O)N1CC[C@](CC#N)(n2nc(Nc3ccc([C@H](O)C(F)(F)F)cc3)c3c(=O)[nH]ccc32)[C@H](F)C1 (single isomer, unassigned) [Example 5-20, tert-butyl (3R,4R)-4-(cyanomethyl)-3-fluoro-4-[4-oxo-3-({4-[(1S or 1R)-2,2,2-trifluoro-1-hydroxyethyl]phenyl}amino)-4,5-dihydro-1H-pyrazolo [4,3-c]pyridin-1-yl] piperidine-1-carboxylate] | 9.82 | 9.92
7 | CC(C)(C)OC(=O)N1CC[C@](CC#N)(n2nc(Nc3ccc([C@@H](O)C(F)(F)F)cc3)c3c(=O)[nH]ccc32)[C@H](F)C1 (single isomer, unassigned) [Example 5-21, tert-butyl (3R,4R)-4-(cyanomethyl)-3-fluoro-4-[4-oxo-3-({4-[(1R or 1S)-2,2,2-trifluoro-1-hydroxyethyl]phenyl}amino)-4,5-dihydro-1H-pyrazolo[4,3-c]pyridin-1-yl]piperidine-1-carboxylate] | 9.82 | 9.85
8 | CC(C)(C)OC(=O)[C@@H]1CC[C@@](CC#N)(n2nc(Nc3ccc4c(c3)NC(=O)C4(C)C)c3c(=O)[nH]ccc32)CO1 [Example 21-3, (2S,5S)-tert-butyl 5-(cyanomethyl)-5-(3-((3,3-dimethyl-2-oxoindolin-6-yl)amino)-4-oxo-4,5-dihydro-1H-pyrazolo[4,3-c]pyridin-1-yl)tetrahydro-2H-pyran-2-carboxylate] | 10.15 | 

Next, values leading:

Row | pIC50 [1] | pIC50 [2] | SMILES
9 | 9.89 | 9.06 | COC(=O)[C@@H]1CC[C@@](CC#N)(n2nc(Nc3ccc(S(C)(=O)=O)cc3)c3c(=O)[nH]ccc32)CO1 (racemic) [Example 5-32, (2S,5S and 2R,5R)-methyl 5-(cyanomethyl)-5-(3-((4-(methylsulfonyl)phenyl)amino)-4-oxo-4,5-dihydro-1H-pyrazolo[4,3-c]pyridin-1-yl)tetrahydro-2H-pyran-2-carboxylate]
10 | 8.46 | 7.53 | CC(C)(C)OC(=O)[C@@H]1CC[C@](CC#N)(n2nc(Nc3ccc(S(C)(=O)=O)cc3)c3c(=O)[nH]ccc32)CO1 (racemic) [Example 5-35, (2R,5S and 2S,5R)-tert-butyl 5-(cyanomethyl)-5-(3-((4-(methylsulfonyl)phenyl)amino)-4-oxo-4,5-dihydro-1H-pyrazolo [4,3-c]pyridin-1-yl) tetrahydro-2H-pyran-2-carboxylate]
11 | 10.05 | 9.47 | CC(C)(C)OC(=O)[C@@H]1CC[C@@](CC#N)(n2nc(Nc3ccc(S(C)(=O)=O)cc3)c3c(=O)[nH]ccc32)CO1 (racemic) [Example 5-36, (2S,5S and 2R,5R)-tert-butyl 5-(cyanomethyl)-5-(3-((4-(methylsulfonyl)phenyl)amino)-4-oxo-4,5-dihydro-1H-pyrazolo[4,3-c]pyridin-1-yl)tetrahydro-2H-pyran-2-carboxylate]
12 | 10.52 | 9.64 | COC(=O)[C@@H]1CC[C@@](CC#N)(n2nc(Nc3ccc(S(C)(=O)=O)cc3)c3c(=O)[nH]ccc32)CO1 (single isomer, unassigned) [Example 5-33, (2S,5S or 2R,5R)-methyl 5-(cyanomethyl)-5-(3-((4-(methylsulfonyl)phenyl)amino)-4-oxo-4,5-dihydro-1H-pyrazolo[4,3-c]pyridin-1-yl)tetrahydro-2H-pyran-2-carboxylate]
13 | 8.32 | 7.65 | COC(=O)[C@H]1CC[C@](CC#N)(n2nc(Nc3ccc(S(C)(=O)=O)cc3)c3c(=O)[nH]ccc32)CO1 (single isomer, unassigned) [Example 5-34, (2S,5S or 2R,5R)-methyl 5-(cyanomethyl)-5-(3-((4-(methylsulfonyl)phenyl)amino)-4-oxo-4,5-dihydro-1H-pyrazolo[4,3-c]pyridin-1-yl)tetrahydro-2H-pyran-2-carboxylate]
14 | 8.71 | 7.77 | CC(C)(C)OC(=O)[C@@H]1CC[C@](CC#N)(n2nc(Nc3ccc(S(C)(=O)=O)cc3)c3c(=O)[nH]ccc32)CO1 (single isomer, unassigned) [Example 5-37, (2R,5S or 2S,5R)-tert-butyl 5-(cyanomethyl)-5-(3-((4-(methylsulfonyl)phenyl)amino)-4-oxo-4,5-dihydro-1H-pyrazolo[4,3-c]pyridin-1-yl)tetrahydro-2H-pyran-2-carboxylate]
15 | 7.93 | 7.46 | CC(C)(C)OC(=O)[C@H]1CC[C@@](CC#N)(n2nc(Nc3ccc([C@@H](N)C(F)(F)F)cc3)c3c(=O)[nH]ccc32)CO1 (single isomer, unassigned) [Example 5-50, (2R,5S)-tert-butyl 5-(3-((4-((R or S)-1-amino-2,2,2-trifluoroethyl)phenyl)amino)-4-oxo-4,5-dihydro-1H-pyrazolo[4,3-c]pyridin-1-yl)-5-(cyanomethyl) tetrahydro-2H-pyran-2-carboxylate]
16 | 9.74 | 9.31 | CC(C)(C)OC(=O)[C@@H]1CC[C@@](CC#N)(n2nc(Nc3ccc([C@@H](N)C(F)(F)F)cc3)c3c(=O)[nH]ccc32)CO1 (single isomer, unassigned) [Example 5-51, (2S,5S)-tert-butyl 5-(3-((4-((R or S)-1-amino-2,2,2-trifluoroethyl)phenyl)amino)-4-oxo-4,5-dihydro-1H-pyrazolo [4,3-c]pyridin-1-yl)-5-(cyanomethyl)tetrahydro-2H-pyran-2-carboxylate]
